Blank lines part the entries; values can stand above or below the compound they belong to. Non-standard residues stand in square brackets, D forms with d. Residues, ends and D or L forms follow the SMILES beside them. No end group written: not given here. Cit = NC(=O)NCCC[C@H](N)C(=O)O
Key:
[1] = Scaled Parameters = (Raw Parameters + 2.061)/4.484; cited from earlier work
C57Bl/6 mice = assay: Safety and TG elevating effects after IP injection in C57Bl/6 mice (plasma CPK, ALT, AST, lipids); assay type: in vivo; settings: for muscle toxicity (plasma CPK activity) / cytotoxic/toxic response (plasma CPK, ALT, AST): plasma 4 h after injection
Description: The high-dose cytotoxic response of ATI-5261 observed in rat, rabbit and cynomolgus monkey is additionally recapitulated in mice (FIG. 4). Male chow-fed C57bl/6 mice were injected intraperitonelly (IP) with 30 or 300 mg/kg of lipid-fee ATI-5261. Blood was collected via the retro-orbital plexus 4 h after peptide injection and plasma subsequently obtained for measurement of CPK (Panel A) and ALT and AST activities (Panel B, ALT left bars; AST, right bars). Values are means±SD, n=4 mice per group.
This example illustrates that aromatic phenylalanine residues associated with the non-polar surface of ATI-5261 contributed to the majority of the peptide toxicity (FIG. 5). […] Blood was collected via retro-orbital plexus 4 h after injection for isolation of plasma. Levels of plasma CPK (Panel A), ALT (panel B) and AST (Panel C) were determined as described in FIG. 1. Values are means±SD, n=4 mice per group.
All values (mg/dl) are means±SD, n=4, determined at 4 and 6 h post treatment with peptide.

ABCA1 [2] = biological target: T1, ABCA1 (Mus musculus, UniProt P41233); assay: ABCA1-dependent [3H]cholesterol efflux from J774 macrophages with and without cAMP; assay type: cell-based; settings: cAMP treated J774 cells; for efficiency of stimulating cholesterol efflux (concentration dependence): dose response; for Km for cholesterol efflux / peptide concentration at saturation in cholesterol efflux: increasing concentration of peptides, 4 h
T1 construct: treated (18 h) with a cAMP analog to induce ABCA1 protein expression; endogenous in cells; host or cells: J774 macrophages
Text: Suitable cholesterol efflux assays are described in, e.g., Bielicki, J. K and Oda, M. N., Biochemistry, 41:2089-2096 (2002); Jia et al., Biochem. Biophys. Res. Common., 297:206-213 (2002). In some embodiments, a polypeptide known to mediate cholesterol efflux (e.g., helix 9/10 of Apo A-I) is used to screen for additional mediators of cholesterol efflux in a cell based assay. For example, cell lines in which cholesterol efflux can be enhanced using a cAMP analog that up-regulates ABCA1 protein expression (e.g., J774 macrophages) can conveniently be used to assess the ability of a polypeptide of the present invention to mediate cholesterol efflux. The cells are incubated with labeled cholesterol (e.g., [^3H]cholesterol) under conditions appropriate for cholesterol uptake by the cells. Thus, cAMP or cAMP analogs (e.g., CPT-cAMP) are incubated with the cells for a suitable time before the initiation of cellular cholesterol efflux, i.e., prior to contacting the cells with a test polypeptide. Measurement of labeled cholesterol appearing in the medium is used to determine the cholesterol efflux mediating activity of the test polypeptide.
Aliphatic analogs of ATI-5261 lacking phenylalanine residues retained potent ABCA1 selective cholesterol efflux activity (FIG. 7). J774 macrophages were labeled (48 h) with [^3H]cholesterol and treated (18 h) with a cAMP analog to induce ABCA1 protein expression; cells incubated in the absence of cAMP (left bars) served as controls. […] Peptides were used at a concentration of 30 μg/ml, which was maximal for promoting cholesterol efflux activity. Panel B—Dependence of cholesterol efflux on the concentration of peptides. […] Results are expressed as the difference in cholesterol efflux (%/4 h) observed using cAMP treated vs. non-treated J774 cells. Values are means±SD, n=3.

ABCA1 [3] = biological target: T1, ABCA1; assay: as above; assay type: cell-based; parameters: ABCA1-dependent cholesterol efflux: dose or concentration left out as unconfirmed; settings: for ABCA1-dependent cholesterol efflux: J774 with/without cAMP, acceptors lipid-free, 4 h
[4] = male chow-fed C57Bl/6 mice, IP 300 mg/kg

T1 sequence (P41233 whole entry): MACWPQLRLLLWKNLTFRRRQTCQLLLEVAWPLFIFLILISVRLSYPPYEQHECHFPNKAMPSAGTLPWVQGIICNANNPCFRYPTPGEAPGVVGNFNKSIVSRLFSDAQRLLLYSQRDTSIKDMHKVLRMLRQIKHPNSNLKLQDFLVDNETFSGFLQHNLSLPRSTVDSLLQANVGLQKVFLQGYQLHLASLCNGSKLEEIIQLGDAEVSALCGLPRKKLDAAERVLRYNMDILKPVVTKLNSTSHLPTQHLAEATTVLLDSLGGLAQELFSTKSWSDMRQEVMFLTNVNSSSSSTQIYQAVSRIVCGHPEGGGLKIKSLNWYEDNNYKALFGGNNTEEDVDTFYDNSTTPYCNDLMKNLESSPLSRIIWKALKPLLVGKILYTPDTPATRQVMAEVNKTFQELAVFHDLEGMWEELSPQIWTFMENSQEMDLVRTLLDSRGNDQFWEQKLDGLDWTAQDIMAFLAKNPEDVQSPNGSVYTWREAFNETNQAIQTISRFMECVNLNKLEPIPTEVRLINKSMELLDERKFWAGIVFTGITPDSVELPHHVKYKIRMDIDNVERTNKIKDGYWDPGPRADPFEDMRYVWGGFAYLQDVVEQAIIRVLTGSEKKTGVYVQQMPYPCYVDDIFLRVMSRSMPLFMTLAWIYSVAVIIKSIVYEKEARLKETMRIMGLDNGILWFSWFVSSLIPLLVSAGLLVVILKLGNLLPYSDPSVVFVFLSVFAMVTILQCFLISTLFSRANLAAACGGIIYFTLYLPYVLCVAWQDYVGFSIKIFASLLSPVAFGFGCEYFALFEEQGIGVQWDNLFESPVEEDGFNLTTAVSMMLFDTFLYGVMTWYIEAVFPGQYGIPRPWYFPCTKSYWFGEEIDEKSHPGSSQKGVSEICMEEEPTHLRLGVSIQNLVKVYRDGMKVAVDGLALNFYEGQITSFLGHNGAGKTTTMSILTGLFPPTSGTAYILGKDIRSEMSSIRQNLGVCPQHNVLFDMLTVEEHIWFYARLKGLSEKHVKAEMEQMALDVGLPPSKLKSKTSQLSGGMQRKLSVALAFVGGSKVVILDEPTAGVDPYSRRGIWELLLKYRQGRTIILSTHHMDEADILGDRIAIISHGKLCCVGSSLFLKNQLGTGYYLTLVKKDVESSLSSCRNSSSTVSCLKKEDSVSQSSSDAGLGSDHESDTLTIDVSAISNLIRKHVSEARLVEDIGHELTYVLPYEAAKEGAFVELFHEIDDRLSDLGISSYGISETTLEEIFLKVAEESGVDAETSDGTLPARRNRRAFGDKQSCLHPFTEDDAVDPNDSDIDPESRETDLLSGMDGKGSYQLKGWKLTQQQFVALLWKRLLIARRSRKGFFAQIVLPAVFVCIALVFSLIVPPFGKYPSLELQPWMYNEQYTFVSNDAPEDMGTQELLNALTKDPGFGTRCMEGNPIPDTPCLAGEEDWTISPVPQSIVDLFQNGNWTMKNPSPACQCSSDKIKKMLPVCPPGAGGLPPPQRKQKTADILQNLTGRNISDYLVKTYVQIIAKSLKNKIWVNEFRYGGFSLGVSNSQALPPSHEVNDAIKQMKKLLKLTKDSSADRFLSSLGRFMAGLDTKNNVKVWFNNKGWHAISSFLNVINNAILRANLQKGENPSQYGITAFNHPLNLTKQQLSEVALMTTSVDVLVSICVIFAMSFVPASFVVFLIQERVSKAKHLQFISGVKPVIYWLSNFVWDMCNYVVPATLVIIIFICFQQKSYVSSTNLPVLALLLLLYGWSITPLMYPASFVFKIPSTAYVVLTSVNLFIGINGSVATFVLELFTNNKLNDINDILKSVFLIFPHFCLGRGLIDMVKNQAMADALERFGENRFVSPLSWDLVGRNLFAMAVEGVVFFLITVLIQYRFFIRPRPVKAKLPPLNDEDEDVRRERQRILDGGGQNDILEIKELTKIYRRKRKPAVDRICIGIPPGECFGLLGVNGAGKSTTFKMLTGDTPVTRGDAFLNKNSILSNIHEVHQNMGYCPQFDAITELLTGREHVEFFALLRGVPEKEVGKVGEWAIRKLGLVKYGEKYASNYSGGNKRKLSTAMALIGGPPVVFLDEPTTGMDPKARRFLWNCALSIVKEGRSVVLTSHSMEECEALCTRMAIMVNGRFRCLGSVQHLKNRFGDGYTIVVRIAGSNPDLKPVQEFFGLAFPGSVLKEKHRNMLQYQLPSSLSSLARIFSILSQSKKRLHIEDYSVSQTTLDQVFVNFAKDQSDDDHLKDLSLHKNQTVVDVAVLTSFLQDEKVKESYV

Compound: C[C@H](N)C(=O)O [Alanine]
Hydrophobicity (scaled computational log(P)) [1]: 0.616

Compound: N=C(N)NCCC[C@H](N)C(=O)O [Arginine]
Hydrophobicity (scaled computational log(P)) [1]: 0.000

Compound: NC(=O)C[C@H](N)C(=O)O [Asparagine]
Hydrophobicity (scaled computational log(P)) [1]: 0.236

Compound: N[C@@H](CCC(=O)O)C(=O)O [Glutamate]
Hydrophobicity (scaled computational log(P)) [1]: 0.043

Compound: NCC(=O)O [Glycine]
Hydrophobicity (scaled computational log(P)) [1]: 0.501

Compound: N[C@@H](Cc1c[nH]cn1)C(=O)O [Histidine]
Hydrophobicity (scaled computational log(P)) [1]: 0.165

Compound: CC[C@H](C)[C@H](N)C(=O)O [Isoleucine]
Hydrophobicity (scaled computational log(P)) [1]: 0.943

Compound: NCCCC[C@H](N)C(=O)O [Lysine]
Hydrophobicity (scaled computational log(P)) [1]: 0.283

Compound: CSCC[C@H](N)C(=O)O [Methionine]
Hydrophobicity (scaled computational log(P)) [1]: 0.738

Compound: N[C@@H](Cc1ccccc1)C(=O)O [Phenylalanine]
Hydrophobicity (scaled computational log(P)) [1]: 1.00

Compound: O=C(O)[C@@H]1CCCN1 [Proline]
Hydrophobicity (scaled computational log(P)) [1]: 0.711

Compound: CC[C@H](C)[C@H](NC(=O)[C@H](C)NC(=O)[C@H](C)NC(=O)[C@@H](NC(=O)[C@H](Cc1c[nH]c2ccccc12)NC(=O)[C@H](CCC(=O)O)NC(=O)[C@H](CCC(=O)O)NC(=O)[C@H](CC(C)C)NC(=O)[C@H](CCCCN)NC(=O)[C@H](CO)NC(=O)[C@H](CCCNC(N)=O)NC(=O)[C@@H](NC(=O)[C@@H](N)CCC(=O)O)C(C)C)[C@@H](C)CC)C(=O)N[C@@H](CCCNC(N)=O)C(=O)N[C@@H](CCC(=O)O)C(=O)N[C@H](C(=O)N[C@@H](C)C(=O)N[C@@H](CCC(=O)O)C(=O)N[C@@H](CCC(=O)O)C(=O)N[C@H](C(=O)N[C@@H](CC(C)C)C(=O)N[C@@H](C)C(=O)N[C@@H](CCCNC(=N)N)C(=O)N[C@@H](CC(C)C)C(=O)N[C@@H](CCCCN)C(=O)N[C@@H](CO)C(=O)O)[C@@H](C)CC)[C@@H](C)CC [T6991-2, EVC*SKLEEWIAAIC*EIAEEILARLKS (SEQ ID NO:3)] (H-EV[Cit]SKLEEWIAAI[Cit]EIAEEILARLKS-OH)
muscle toxicity (plasma CPK activity) (C57Bl/6 mice; [4]): little or no cytotoxic properties

Compound: C[C@@H](O)[C@H](N)C(=O)O [Threonine]
Hydrophobicity (scaled computational log(P)) [1]: 0.450

Compound: N[C@@H](Cc1c[nH]c2ccccc12)C(=O)O [Tryptophan]
Hydrophobicity (scaled computational log(P)) [1]: 0.878

Compound: N[C@@H](Cc1ccc(O)cc1)C(=O)O [Tyrosine]
Hydrophobicity (scaled computational log(P)) [1]: 0.880

Compound: CC(C)[C@H](N)C(=O)O [Valine]
Hydrophobicity (scaled computational log(P)) [1]: 0.825

Compound: EARSKAEEWLAALLELAEELLARAKS [T5211-2]
cytotoxic/toxic response (plasma CPK, ALT, AST) (C57Bl/6 mice; [4]): little or no toxic responses

Compound: EARSKAEEWLAALRELAEELLARAKS [T5505-12]
TG elevating effects (plasma TG) (C57Bl/6 mice; [4]): greatly ablated
cytotoxic/toxic response (plasma CPK, ALT, AST) (C57Bl/6 mice; [4]): low toxicity

Compound: EVKSKLEEWFAAFKEFAEEFLAKLKS [T5594-5]
cytotoxic/toxic response (plasma CPK, ALT, AST) (C57Bl/6 mice; [4]): displayed cytotoxic and TG elevating activity

Compound: EVNSKLEEWLAALNELAEELLARLKS [T5766-4]
muscle toxicity (plasma CPK activity) (C57Bl/6 mice; [4]): greatly reduced

Compound: EVQSKLEEWLAALQELAEELLARLKS [T5766-3]
muscle toxicity (plasma CPK activity) (C57Bl/6 mice; [4]): greatly reduced

Compound: EVRSKLEEWFAAFREFAEEFLARL [T5766-5]
cytotoxic/toxic response (plasma CPK, ALT, AST) (C57Bl/6 mice; [4]): reduce the toxic responses
muscle toxicity (plasma CPK activity) (C57Bl/6 mice; [4]): greatly reduced muscle toxicity

Compound: EVRSKLEEWFAAFREFAEEFLARLNS [T5594-4]
muscle toxicity (plasma CPK activity) (C57Bl/6 mice; [4]): greatly reduced muscle toxicity

Compound: EVRSKLEEWIAAIREIAEEILARLKS [T6991-1]
muscle toxicity (plasma CPK activity) (C57Bl/6 mice; [4]): little or no cytotoxic properties

Compound: EVRSKLEEWLAALRELAEELAARLKS [T4883-7]
TG elevating effects (plasma TG) (C57Bl/6 mice; [4]): further reduced
cytotoxic/toxic response (plasma CPK, ALT, AST) (C57Bl/6 mice; [4]): further reduced cytotoxic response
muscle toxicity (plasma CPK activity) (C57Bl/6 mice; [4]): eliminate the residual muscle toxicity

Compound: EVRSKLEEWLAALRELAEELLARAKS [T4883-6]
TG elevating effects (plasma TG) (C57Bl/6 mice; [4]): further reduced
cytotoxic/toxic response (plasma CPK, ALT, AST) (C57Bl/6 mice; [4]): further reduced cytotoxic response
muscle toxicity (plasma CPK activity) (C57Bl/6 mice; [4]): eliminate the residual muscle toxicity

Compound: EVRSKLEEWLAALRELAEELLARLKS [T5055-13]
plasma TG, total and unesterified (free) cholesterol (FC) (C57Bl/6 mice; C57Bl/6 mice, 300 mg/kg, 4 and 6 h post treatment): greatly attenuated
muscle toxicity (plasma CPK activity) (C57Bl/6 mice; [4]): residual toxicity

Compound: EVRSKLQEWFAAFREFAQEFLARLKS [T5554-1]
cytotoxic/toxic response (plasma CPK, ALT, AST) (C57Bl/6 mice; [4]): large increase in the toxic response

Compound: T5505-9: ATI-5261 analog with L24A; W9L substitutions (EVRSKLEELLAALRELAEELLARAKS; synthetic amphipathic alpha-helix cholesterol efflux peptide T5505-9, LeuATI-5261 analog)
efficiency of stimulating cholesterol efflux (concentration dependence) (ABCA1 [2]): high efficiency
Km for cholesterol efflux (ABCA1 [2]): 0.58 µg/mL
peptide concentration at saturation in cholesterol efflux (ABCA1 [2]): ~3 µg/mL
TG elevating effects (plasma TG) (C57Bl/6 mice; [4]): markedly reduced
plasma ALT and/or AST (general, hepatic toxicity) (C57Bl/6 mice; [4]): markedly reduced
muscle toxicity (plasma CPK activity) (C57Bl/6 mice; [4]): markedly reduced

Compound: T5554-4: E→Q analog carrying the favorable citrulline substitutions (EV[Cit]SKLQEWFAAFREFAEEFLARLKS)
cytotoxic/toxic response (plasma CPK, ALT, AST) (C57Bl/6 mice; [4]): retained strong toxic (CPK, ALT, and AST) and TG elevating responses

Compound: T5554-5: E→Q analog carrying the favorable citrulline substitutions, net-charge −1 (EV[Cit]SKLQEWFAAF[Cit]EFAQEFLARLKS)
cytotoxic/toxic response (plasma CPK, ALT, AST) (C57Bl/6 mice; [4]): retained strong toxic (CPK, ALT, and AST) and TG elevating responses

efficiency of stimulating cholesterol efflux (concentration dependence) (ABCA1 [2]): highly efficient manner
Km for cholesterol efflux (ABCA1 [2]): low Km
peptide concentration at saturation in cholesterol efflux (ABCA1 [2]): 3 µg/mL
Compound: T6275-5: citrulline form of LeuATI-5261 with single citrulline14→L substitution (EV[Cit]SKLEEWLAALLELAEELLARLKS)

Compound: Y26 form of CS6253: CS6253 with a S26→Y substitution to facilitate labeling with 125I (SEQ ID NO:87) (EV[Cit]SKLEEWLAAL[Cit]ELAEELLARLKY)
ABCA1-dependent cholesterol efflux activity (ABCA1 [3]; J774 macrophages with/without cAMP, peptide 10 μg/ml): mediating high-levels of cholesterol efflux

ABCA1-dependent cholesterol efflux (ABCA1 [3]): High-levels of cholesterol efflux
Compound: apoA-I: Apolipoprotein A-I, native apolipoprotein used lipid-free as cholesterol efflux acceptor

ABCA1-dependent cholesterol efflux (ABCA1 [3]): High-levels of cholesterol efflux
Compound: apoE: Apolipoprotein E, native apolipoprotein used lipid-free as cholesterol efflux acceptor

From patent publication US9416162B2, “Peptides having reduced toxicity that stimulate cholesterol efflux” (The Regents of the University of California, priority 2013, dated 2016)
